The source made the active and inactive calls. The rule behind the calls is not given here.
Experiments:
Mus musculus [1] = assay: In vivo inhibition of NFkappaB activation in athymic BALB/c mouse xenografted with human HT-29 cells assessed as reduction in IL-8 gene expression in tumor at 5 to 15 mg/kg, ip administered every other day and measured after 14 days by qRT-PCR analysis; type: functional, organism-based; conditions: dose 5-15 mg/kg, time 14.0 day
HT-29 [2] = assay: Antitumor activity against human HT-29 cells xenografted in athymic nude BALB/c mouse assessed as reduction in tumor weight at 5 to 15 mg/kg, ip administered every other day and measured every other day for 16 days; type: functional, organism-based; conditions: dose 5-15 mg/kg, time 16.0 day
HT-29 [3] = assay: Cytotoxicity against human HT-29 cells assessed as decrease in cell viability incubated for 48 hrs by SRB assay; type: functional, cell-based; conditions: HT-29, 48 h
HCT-116 [4] = assay: Induction of cell cycle arrest in human HCT-116 cells assessed as accumulation of cells at S phase at 10 uM by RNase/PI staining based flow cytometry analysis (reference value: 43.77 %); type: functional
HT-29 [5] = assay: Induction of cell cycle arrest in human HT-29 cells assessed as accumulation of cells at G0/G1 phase at 10 uM by RNase/PI staining based flow cytometry analysis (reference value: 50.73 %); type: functional
HT-29 [6] = assay: Induction of cell cycle arrest in human HT-29 cells assessed as accumulation of cells at G2/M phase at 5 uM by RNase/PI staining based flow cytometry analysis (reference value: 9.93 %); type: functional
HT-29 [7] = assay: Induction of cell cycle arrest in human HT-29 cells assessed as accumulation of cells at S phase at 1 uM by RNase/PI staining based flow cytometry analysis (reference value: 39.34%); type: functional
HCT-116 [8] = assay: Induction of apoptosis in human HCT-116 cells assessed as viable cells at 0.25 uM incubated for 24 hrs by Annexin V-FITC/PI staining based flow cytometric analysis (reference value: 88.8%); type: functional; conditions: read-out: Activity
HCT-116 [9] = assay: Induction of cell cycle arrest in human HCT-116 cells assessed as decrease in CDK2 protein expression upto 10 uM incubated for 24 hrs by Western blot analysis; type: functional, cell-based
HCT-116 [10] = assay: Induction of cell cycle arrest in human HCT-116 cells assessed as decrease in Cdc25c protein expression upto 10 uM incubated for 24 hrs by Western blot analysis; type: functional, cell-based
HT-29 [11] = assay: Induction of cell cycle arrest in human HT-29 cells assessed as decrease in Cyclin B protein expression upto 10 uM incubated for 24 hrs by Western blot analysis; type: functional, cell-based
HT-29 [12] = assay: Induction of cell cycle arrest in human HT-29 cells assessed as decrease in Cdc2 protein expression upto 10 uM incubated for 24 hrs by Western blot analysis; type: functional, cell-based
HCT-116 [13] = assay: Induction of apoptosis in human HCT-116 cells assessed as early apoptotic cells at 1 uM incubated for 24 hrs by Annexin V-FITC/PI staining based flow cytometric analysis (reference value: 7.22 %); type: functional
HT-29 [14] = assay: Induction of apoptosis in human HT-29 cells assessed as early apoptotic cells at 10 uM incubated for 24 hrs by Annexin V-FITC/PI staining based flow cytometric analysis (reference value: 5.29 %); type: functional
HT-29 [15] = assay: Induction of apoptosis in human HT-29 cells assessed as early apoptotic cells at 5 uM incubated for 24 hrs by Annexin V-FITC/PI staining based flow cytometric analysis (reference value: 5.29 %); type: functional
HT-29 [16] = assay: Induction of apoptosis in human HT-29 cells assessed as late apoptotic cells at 0.5 uM incubated for 24 hrs by Annexin V-FITC/PI staining based flow cytometric analysis (reference value: 1.56 %); type: functional
HT-29 [17] = assay: Induction of apoptosis in human HT-29 cells assessed as inhibition of caspase 8 protein expression measured for 24 hrs by Western blot analysis; type: functional, cell-based; conditions: dose 0-10 µM
HCT-116 [18] = assay: Induction of apoptosis in human HCT-116 cells assessed as early apoptotic cells at 5 uM preincubated with Z-VAD-FMK for 1 hr followed by compound addition and measured after 24 hrs by Annexin V-FITC/PI staining based flow cytometric analysis (reference value: 4.75 %); type: functional
HT-29 [19] = assay: Induction of apoptosis in human HT-29 cells assessed as viable cells at 5 uM preincubated with Z-VAD-FMK for 1 hr followed by compound addition and measured after 24 hrs by Annexin V-FITC/PI staining based flow cytometric analysis (reference value: 88.5 %); type: functional; conditions: read-out: Activity
HT-29 [20] = assay: Induction of apoptosis in human HT-29 cells assessed as necrotic cells at 5 uM preincubated with Z-VAD-FMK for 1 hr followed by compound addition and measured after 24 hrs by Annexin V-FITC/PI staining based flow cytometric analysis (reference value: 0.4 %); type: functional
Mus musculus [21] = assay: In vivo inhibition of NFkappaB activation in LPS-induced BALB/c mouse model of endotoxin shock assessed as inhibition of IL6 mRNA expression in liver at 5 mg/kg, ip pretreated for 4 hrs followed by LPS stimulation for 1 hr by RT-PCR analysis; type: functional, organism-based; conditions: time 5.0 hrs
HT-29 [22] = assay: Induction of autophagy in human HT-29 cells assessed as increase in LC3I to LC3II conversion at 1 to 10 uM incubated for 24 hrs by Western blotting analysis; type: functional, cell-based; conditions: dose 1-10 µM
[23] = target: T1, Nuclear factor NF-kappa-B complex (Homo sapiens) (UniProt Q00653+P19838+Q04206); assay: Inhibition of TNF-alpha induced NFkappaB activation in human HCT-116 cells assessed as inhibition of p65 phosphorylation at 1 to 10 uM pretreated for 24 hrs followed by TNFalpha stimulation for 10 mins by Western blot analysis; type: cell-based; conditions: dose 1-10 µM, time 1450.0 min
T1 sequence (P19838 whole entry, looked up): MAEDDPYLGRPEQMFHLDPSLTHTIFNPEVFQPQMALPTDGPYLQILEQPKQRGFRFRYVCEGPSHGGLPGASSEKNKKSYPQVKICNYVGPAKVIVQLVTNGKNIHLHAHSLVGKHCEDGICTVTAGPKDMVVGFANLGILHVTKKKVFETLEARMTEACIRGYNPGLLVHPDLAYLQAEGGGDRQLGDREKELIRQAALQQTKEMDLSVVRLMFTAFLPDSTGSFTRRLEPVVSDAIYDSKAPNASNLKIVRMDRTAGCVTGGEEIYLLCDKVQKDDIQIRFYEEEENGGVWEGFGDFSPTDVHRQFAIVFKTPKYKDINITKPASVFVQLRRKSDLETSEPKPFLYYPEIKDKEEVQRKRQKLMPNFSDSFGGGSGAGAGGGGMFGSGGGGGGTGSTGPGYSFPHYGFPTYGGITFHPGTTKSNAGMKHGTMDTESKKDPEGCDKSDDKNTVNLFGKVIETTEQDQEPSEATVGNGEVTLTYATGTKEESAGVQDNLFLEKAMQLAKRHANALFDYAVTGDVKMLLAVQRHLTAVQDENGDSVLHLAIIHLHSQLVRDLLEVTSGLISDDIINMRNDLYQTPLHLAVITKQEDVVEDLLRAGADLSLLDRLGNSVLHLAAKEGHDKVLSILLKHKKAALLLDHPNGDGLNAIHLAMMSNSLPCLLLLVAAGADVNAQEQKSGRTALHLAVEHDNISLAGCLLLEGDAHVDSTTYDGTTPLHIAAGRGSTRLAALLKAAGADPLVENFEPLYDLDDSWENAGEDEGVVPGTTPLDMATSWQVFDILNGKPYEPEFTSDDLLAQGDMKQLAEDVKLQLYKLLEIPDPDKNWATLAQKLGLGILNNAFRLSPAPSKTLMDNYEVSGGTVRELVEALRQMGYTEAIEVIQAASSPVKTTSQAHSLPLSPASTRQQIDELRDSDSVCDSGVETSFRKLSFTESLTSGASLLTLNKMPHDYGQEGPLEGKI
T1 sequence (Q00653 whole entry, looked up): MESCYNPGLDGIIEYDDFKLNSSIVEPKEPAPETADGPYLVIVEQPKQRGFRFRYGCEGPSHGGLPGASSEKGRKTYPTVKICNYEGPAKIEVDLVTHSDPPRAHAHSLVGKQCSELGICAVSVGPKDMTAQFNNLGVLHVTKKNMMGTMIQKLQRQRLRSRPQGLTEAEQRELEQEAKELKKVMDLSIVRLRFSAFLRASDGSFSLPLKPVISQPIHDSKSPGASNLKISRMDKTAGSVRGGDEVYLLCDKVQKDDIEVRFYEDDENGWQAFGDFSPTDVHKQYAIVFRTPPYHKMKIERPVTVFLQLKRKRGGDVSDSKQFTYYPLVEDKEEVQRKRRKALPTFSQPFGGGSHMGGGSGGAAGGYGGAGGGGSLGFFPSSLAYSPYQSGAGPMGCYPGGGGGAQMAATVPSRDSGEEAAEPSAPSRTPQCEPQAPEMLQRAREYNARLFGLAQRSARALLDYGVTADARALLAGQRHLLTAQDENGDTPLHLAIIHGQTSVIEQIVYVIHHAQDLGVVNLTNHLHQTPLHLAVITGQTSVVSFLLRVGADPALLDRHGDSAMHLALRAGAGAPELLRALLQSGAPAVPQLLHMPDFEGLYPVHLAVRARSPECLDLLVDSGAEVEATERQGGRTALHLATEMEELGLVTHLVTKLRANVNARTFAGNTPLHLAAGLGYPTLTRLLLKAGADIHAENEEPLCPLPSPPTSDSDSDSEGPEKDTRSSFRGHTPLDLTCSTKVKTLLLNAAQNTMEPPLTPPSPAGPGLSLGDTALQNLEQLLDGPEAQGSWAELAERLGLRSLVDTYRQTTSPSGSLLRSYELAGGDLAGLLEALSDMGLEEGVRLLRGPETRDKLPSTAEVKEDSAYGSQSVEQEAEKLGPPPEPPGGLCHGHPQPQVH
T1 sequence (Q04206 whole entry, looked up): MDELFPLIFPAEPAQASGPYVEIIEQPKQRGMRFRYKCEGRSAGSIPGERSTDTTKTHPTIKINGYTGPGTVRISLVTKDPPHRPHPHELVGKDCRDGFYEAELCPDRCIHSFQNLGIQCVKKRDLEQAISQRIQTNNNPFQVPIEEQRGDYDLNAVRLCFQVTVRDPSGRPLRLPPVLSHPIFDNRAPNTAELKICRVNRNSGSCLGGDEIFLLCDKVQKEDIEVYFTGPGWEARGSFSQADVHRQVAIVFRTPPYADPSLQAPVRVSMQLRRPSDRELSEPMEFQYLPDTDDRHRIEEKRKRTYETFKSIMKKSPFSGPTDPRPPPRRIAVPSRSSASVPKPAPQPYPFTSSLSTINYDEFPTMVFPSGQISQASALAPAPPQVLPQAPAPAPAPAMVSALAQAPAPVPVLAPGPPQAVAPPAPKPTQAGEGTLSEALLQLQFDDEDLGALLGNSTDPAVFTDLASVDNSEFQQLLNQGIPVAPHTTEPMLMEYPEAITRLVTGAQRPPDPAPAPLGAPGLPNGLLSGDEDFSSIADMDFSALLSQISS

Mus musculus [24] = assay: In vivo inhibition of NFkappaB activation in LPS-induced BALB/c mouse model of endotoxin shock assessed as reduction in IL6 level in serum at 5 mg/kg, ip pretreated for 4 hrs followed by LPS stimulation for 1 hr by ELISA; type: functional, organism-based; conditions: time 5.0 hrs
[25] = target: T1, Nuclear factor NF-kappa-B complex (Homo sapiens); assay: Inhibition of NFkappaB activation in HEK293T cells transfected with Flag-tagged TRAF2 and kappaB luciferase/pTK-renilla reporters at 2 uM incubated for 6 hrs by Dual Luciferase Reporter Assay; type: cell-based; conditions: HEK-293T
HCT-116 [26] = assay: Antitumor activity against human HCT-116 cells xenografted in athymic nude BALB/c mouse assessed as reduction in tumor weight at 5 to 15 mg/kg, ip administered every other day and measured every other day for 16 days; type: functional, organism-based; conditions: dose 5-15 mg/kg, time 16.0 day
[27] = Toxicity in athymic nude BALB/c mouse xenografted with human HT-29 cells assessed as pathological changes in heart at 5 to 15 mg/kg, ip administered every other day and measured after 14 days by hematoxylin and eosin staining-based microscopic analysis; type: organism-based; conditions: in vivo, 336 h, dose 5-15 mg/kg, time 14 day
Mus musculus [28] = assay: Anti-inflammatory activity in AOM/DSS-induced BALB/c mouse model inflammatory bowel disease assessed as reduction in tumor load at 5 to 10 mg/kg, ip pretreated with AOM for 7 days further replaced with DSS for 7 days and repeated for 2 times followed by every 2 days compound treatment for […] starting from day 50 and measured once a week; type: functional, organism-based; conditions: dose 5-10 mg/kg, time 21.0 day
Mus musculus [29] = assay: Anti-inflammatory activity in AOM/DSS-induced BALB/c mouse model inflammatory bowel disease assessed as reduction in tumor length at 5 to 10 mg/kg, ip pretreated with AOM for 7 days further replaced with DSS for 7 days and repeated for 2 times followed by every 2 days compound treatment for […] starting from day 50 and measured once a week; type: functional, organism-based; conditions: dose 5-10 mg/kg, time 21.0 day

For `C[C@@H]1CC[C@H]2[C@H](C(=O)c3c(O)c([C@@]4(O)CC[C@@H](O)[C@H]5O[C@H]54)cn(O)c3=O)[C@H](C)C=C[C@@H]2C1`, the inhibition (Mus musculus [1]) was “Active”, the Activity (HT-29 [2]) was “Active” and the IC50 (HT-29 [3]) was 0.57 µM. For the same molecule, the Activity (HCT-116 [4]) was 39.08%, the Activity (HT-29 [5]) was 72.58% and the Activity (HT-29 [6]) was 0.17%. The Activity (HT-29 [7]) was 23.75%, the viability at 0.25 µM (HCT-116 [8]) was 59.9% and the Activity (HCT-116 [9]) was “Active”. The Activity (HCT-116 [10]) was “Active”, the Activity (HT-29 [11]) was “Active” and the Activity (HT-29 [12]) was “Active”. For the same molecule, the Activity (HCT-116 [13]) was 18.6%, the Activity (HT-29 [14]) was 46.2% and the Activity (HT-29 [15]) was 56.4%. The Activity (HT-29 [16]) was 6.72%, the Activity (HT-29 [17]) was “Dose-Dependent Effect” and the Activity (HCT-116 [18]) was 16.8%. The viability at 5 µM (HT-29 [19]) was 65.5%, the Activity (HT-29 [20]) was 0.15% and the inhibition (Mus musculus [21]) was “Active”. The Activity (HT-29 [22]) was “Active”, the inhibition [23] was “Active” and the inhibition (Mus musculus [24]) was “Active”. For the same molecule, the inhibition [25] was “Active”, the Activity (HCT-116 [26]) was “Active” and the Activity [27] was “Non-Toxic”. The Activity (Mus musculus [28]) was “Active” and the Activity (Mus musculus [29]) was “Active”.
